Columns and labels:
[1] = target: T1, synoviolin activity of ubiquitinating P4HA1 (Homo sapiens, UniProt Q86TM6); experiment: Inhibition of ubiquitination activity using energy transfer of XL665-Eu(K) (HTRF method); type: biochemical; settings: Eu(K)-labeled ubiquitin, GST-P4HA1 substrate, compared with binding inhibition
T1 construct: comprises a MBP-fused synoviolin that lacks the transmembrane segment (TM) (synoviolin dTM); made in house; host or cells: Escherichia coli
Protocol: A method of high-throughput screening (HTS) for compounds that inhibit the synoviolin activity of ubiquitinating P4HA1 was investigated. A system was designed in which ubiquitination by Eu(K)-labeled ubiquitin was conducted using P4HA1 expressed as a GST-fused protein as a substrate. When P4HA1 underwent Eu(K)-labeled ubiquitination, energy transfer occurred between an XL665-labeled anti-GST antibody and an Eu(K)-labeled ubiquitin, and fluorescence was detected.
A standard reaction mixture comprising 60 ng MBP-synoviolin-His, 15 ng GST-P4HA1, 15 ng E1 (Boston Biochem), 200 ng His-E2, 6.25 nM Eu(K)-labeled ubiquitin (CIS bio international), 5 mM MgCl2, 2 mM ATP, 1 mM DTT, 0.1% BSA, 0.3% DMSO, and a test compound in 15 μL of a 20 mM HEPES (pH 7.5) solution was prepared using a 384-well plate. After a 30 minute reaction at 37° C., 5 μL of 0.5 M EDTA was added to terminate the reaction. To this was added 5 μL of 20 mM HEPES solution containing an XL665-labeled […] antibody (0.025 μg) and 1 M K, and the mixture was left to stand overnight at room temperature, and the fluorescence was measured using RUBYstar™.

[2] = target: T1, synoviolin activity of ubiquitinating P4HA1; experiment: Inhibition of ubiquitination activity using ELISA; type: biochemical; settings: anti-GST capture, anti-ubiquitin detection, OD 450 nm
Protocol: A 96-well ELISA plate was adsorbed with an anti-GST antibody at 4° C. overnight and then blocked with 5% BSA/PBS solution at room temperature until it was used. The plate was washed twice before use with 300 μL of PBS containing 0.3% BSA (PBSA).
A standard reaction mixture comprising 80 ng MBP-synoviolin-His, 40 ng GST-P4HA1, 15 ng E1, 200 ng His-E2, 5 mM MgCl2, 2 mMATP, 1 mM DTT, 0.1% BSA, 0.3% DMSO, and a test compound in 30 μL of 50 mM HEPES (pH 7.5) solution was prepared in a reaction tube. After a 30 minute reaction at room temperature, 70 μL of a solution containing 70 mM EDTA and 50 mM HEPES was added to terminate the reaction. This (30 μl) was added to a plate previously containing 70 μL PBSA and incubated at room temperature for 1 hour. After washing three times with 300 μL of PBSA, 100 μL of a mouse anti-ubiquitin antibody solution diluted 1:5000 in PBSA was added, and the mixture was incubated at room temperature for 1 hour. After three washes with 300 μL of PBSA, 100 μL of a peroxidase-labeled anti-mouse IgG solution diluted 1:10000 in PBSA was added, and the mixture was incubated at room temperature for 1 hour. […] When a sufficient coloration was observed, 1 M phosphoric acid was added to terminate the reaction, and the optical density at 450 nm was measured.

T1 sequence (Q86TM6 246-617 limits assumed): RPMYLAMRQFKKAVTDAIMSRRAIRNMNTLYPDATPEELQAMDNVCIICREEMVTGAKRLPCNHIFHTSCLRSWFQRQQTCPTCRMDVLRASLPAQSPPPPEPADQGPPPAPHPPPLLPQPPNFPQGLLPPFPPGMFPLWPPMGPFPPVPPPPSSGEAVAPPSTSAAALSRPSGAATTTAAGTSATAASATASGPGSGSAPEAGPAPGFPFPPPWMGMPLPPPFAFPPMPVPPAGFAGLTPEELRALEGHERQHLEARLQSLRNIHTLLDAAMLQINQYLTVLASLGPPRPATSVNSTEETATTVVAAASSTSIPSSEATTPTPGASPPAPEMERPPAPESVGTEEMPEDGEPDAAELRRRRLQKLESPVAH

- concentration inhibiting the ubiquitination of P4HA1, relative to that for inhibition of the binding [1]: 20 times lower
- IC50 of inhibition of the ubiquitination of P4HA1 [2]: 55 µg/mL
Sequence: DNVCIICREEMVTGAKRLDCN [SEQ ID NO: 5]

Reference: patent publication US20070134720A1, “Method of detecting effect of controlling synoviolin activity” (priority 2003, published 2007)
